# Laboratory results from patent US6444878B1, “Method of plant selection using glucosamine-6-phosphate deaminase” (Danisco A/S, priority 1997, dated 2002).
# Where a name gives a salt, the structure may show the parent alone. Read-outs that look alike come from different tables or passages of the source.
# Columns and labels:
# [1] = system: natural plant cells; details: formed from milli-molar amounts of glucosamine; cited from earlier work
# [2] = system: glucosamine-6-phosphate deaminase encoded by nagB; test: Conversion of GA6P to F6P by glucosamine-6-phosphate deaminase, allosteric effect; type: biochemical, E. coli; details: FIG. 3
# Excerpt: One aspect of the selection method of the present invention provides an additional advantageous feature. […] This surprising finding is in accordance with studies done with E. coli (Calcagno, M, et al (1984) Biochim Biophys Acta 787: 165-173). Thus, should any glucosamine be metabolised to NAGA and in turn eventually to NAG6P then that NAG6P would ensure conversion of GA6P to F6P by the enzyme glucosamine-6-phosphate deaminase or at least aid the conversion step. This is an advantageous feature of the highly preferred selection method of the present invention.
# [3] = system: non-transgenic guar cotyledons; type: cell-based; details: glucosamine 3.0 g/l
# Procedure: In order to establish the toxicity of glucosamine to guar explants, a dose-response curve with glucosamine concentrations ranging from 0 to 5.0 g/l was made using non-transgenic guar cotyledons as explants. The effect on shoot formation on the explants was used to determine the toxicity of glucosamine (FIG. 20).
# The guar explants were obtained as follows. Guar seeds were sterilized in a 2.5% sodium hypochlorite solution at pH 7.0 added two drops of Tween 80 pr 100 ml solution. The seeds were stirred for 25 minutes in this solution and then washed five times with sterile water. Seeds were sown on germination medium (4.43 g/l MSMO (Sigma M6899), 20 g/l sucrose, 8.0 g/l agar, pH adjusted to 5.8 with KOH) and placed at 25° C. for 11-13 days at a 12 h/12 h day/night regime.
# The cotyledons including about 2 mm of hypocotyl were excised from the seedlings and were used as explants for this experiment as well as for transformation experiments. The cotyledons were placed on selection medium containing various concentrations of glucosamine.
# 0-5 g/l D-glucosamine, HCl (according to the experiment)
# After three weeks, the percentage of explants forming shoots on the various glucosamine containing media were determined and the results are given in FIG. 20.
# In order to be able to find appropriate selection conditions, some factors affecting the toxicity of glucosamine were studied. Initially, sucrose was tested at various concentrations (5-40 g/l) in the selection medium. […] It is expected that other saccharides such glucose, fructose, maltose, mannose etc may also affect the effect of glucosamine.
# Next, the effect of the concentration of the Gamborg B5 salts in the selection medium was tested in the presence of glucosamine (3.0 g/l). We investigated the use of these salts with a view to decreasing the carbon content of the medium.
# [4] = system: Solanum tuberosum cv Saturna explants; type: cell-based; details: for Number of transformed areas per explant / Number of transgenic shoots / Transformation frequency (number transgenic shoots/started explants) / Transformation frequency (%) (Number transgenic shoots/started explants): sucrose 7.5 g/l
# Procedure: The disarmed Agrobacterium tumefaciens strain LBA 4404, containing the helper vir plasmid pRAL4404 (Hoekema et al, 1983 Nature 303 pp 179-180), was cultured on YMB agar (K2HPO4.3H2O 660 mg l^−1, MgSO4 200 mg l^−1, NaCl 100 mg l^−1, mannitol 10 g l^−1, yeast extract 400 mg l^−1, 0.8% w/v agar, pH 7.0) containing 100 mg l^−1 rifampicin and 500 mg l^−1 streptomycin sulphate. Transformation with pVICTOR IV GNG E35S nagB IV2 or pVICTOR IV GNG rbc nagB IV2 or pVICTOR IV GNG E35 S nagB was accomplished using the freeze-thaw method of Holters et al (1978 Mol Gen Genet 163 181-187) and transformants were selected on YMB agar containing 100 mg l^−1 rifampicin and 500 mg l^−1 streptomycin, and 50 mg l^−1 gentamycin sulphate. Transformation with a control construct lacking the nagB gene was performed in the same manner.
# Shoot cultures of Solanum tuberosum cv Saturna were maintained on LS agar containing Murashige Skoog basal salts (Sigma M6899) (Murashige and Skoog, 1965, Physiol Plant 15 473-497) with 2 μM silver thiosulphate, and nutrients and vitamins as described by Linsmaier and Skoog (1965 Physiol Plant 18 100-127). Cultures were maintained at 25° C. with a 16 h daily photoperiod. After approximately 40 days, subculturing was performed during and the shoots cut into mononodal segments of approximately 8 mm length.
# Shoot cultures of approximately 40 days maturity (5-6 cm height) were cut into 8 mm internodal segments and/or leaves were cut off and wounded by making 24 small cuts over the midrib of the leaf. These were then placed into liquid LS-medium containing Agrobacterium tumefaciens transformed with pVICTOR IV GNG E35 S nagB IV2 or pVICTOR IV GNG rbc nagB IV2 or pVICTOR IV GNG E35S nagB (A660=0.5, pathlength 1 cm). Following incubation at room temperature for 30 minutes, the segments were dried by blotting on to sterile filter paper and transferred to LS agar (0.8% w/v containing 2 mg l^−1 2,4-D and 500 μg l^−1 trans-zeatin. The explants were covered with filter paper, moistened with LS medium, and covered with a cloth for three days at 25° C. Following this treatment, the segments can be washed with liquid LS medium containing 800 mg l^−1 carbenicillin, and then transferred on to LS agar (0.8% w/v) containing 1 mg l^−1 trans-zeatin, […] gibberellic acid (GA3), with sucrose (eg 7.5 g l^−1). This agar can optionally contain glucosamine (eg 2.5 g l^−1). The segments were sub-cultured to fresh substrate each […]. In 3 to 4 weeks, shoots develop from the segments and the formation of new shoots continued for 3-4 months.
# The transgenic plants may be verified by performing a GUS assay on the cointroduced β-glucuronidase gene according to Hodal, L. et al. (Pl. Sci. (1992), 87: 115-122).
# [5] = system: guar cotyledonary explants transformed with nagB; test: Selection of transgenic guar shoots on glucosamine selection medium, GUS histochemical assay; type: cell-based, Cyamopsis tetragonoloba
# Procedure: Transformation of guar cotyledonary explants was performed according to Joersbo and Okkels (PCT/DK95/00221) using Agrobacterium tumefaciens LBA4404 harbouring the plasmid shown in FIG. 10. Selection of transgenic shoots was accomplished using the above-mentioned selection medium with various concentrations of glucosamine, sucrose and Garnborg B5 salts. After four weeks the shoots were harvested and all explants were transferred to fresh selection medium (same composition) and after another four weeks of selection the last shoots were harvested. After harvest, the shoots were analysed for β-glucuronidase (GUS) activity using the histochemical assay (Jefferson et al, 1987, EMBO J 6: 3901-3907).
# [6] = second table, glucosamine 1 g/l
# [7] = second table, glucosamine 2.5 g/l
# [8] = second table, glucosamine 5 g/l
# [9] = second table, glucosamine 7.5 g/l
# [10] = second table, glucosamine 10 g/l
# [11] = glucosamine 2 g/l, NH4/NO3 1298 g/l
# [12] = glucosamine 2.5 g/l, NH4/NO3 1189 g/l
# [13] = glucosamine 3 g/l, NH4/NO3 1093 g/l
smiles,measurement,setting,value
"N[C@H]1C(O)O[C@H](COP(=O)(O)O)[C@@H](O)[C@@H]1O (stereo partly drawn) [GA6P, glucosamine-6-phosphate]",Toxicity to natural plant cells,[1],toxic to natural plant cells
"CC(=O)N[C@H]1C(O)O[C@H](COP(=O)(O)O)[C@@H](O)[C@@H]1O (stereo partly drawn) [NAG6P, N-acetyl glucosamine 6-phosphate]",Effect on the conversion of GA6P to F6P by glucosamine-6-phosphate deaminase,[2],positive effect (an allosteric effect)
"N[C@H]1C(O)O[C@H](CO)[C@@H](O)[C@@H]1O (stereo partly drawn) [glucosamine, D-glucosamine, HCl]",Shoot formation on guar explants (%),[3]; Gamborg B5 salts in selection medium 1.6 g/l,6.2%
same,Shoot formation on guar explants (%),[3]; Gamborg B5 salts in selection medium 2.4 g/l,9.1%
same,Shoot formation on guar explants (%),[3]; Gamborg B5 salts in selection medium 3.2 g/l,17.4%
same,Effect of NH4NO3 content on toxicity of glucosamine,[4],lowering the content of NH4NO3 makes the glucosamine less toxic
same,Number of transformed areas per explant,[4]; [6],3.8
same,Number of transgenic shoots,[4]; [6],1
same,Transformation frequency (number transgenic shoots/started explants),[4]; [6],2
same,Number of transformed areas per explant,[4]; [7],0
same,Number of transgenic shoots,[4]; [7],0
same,Transformation frequency (number transgenic shoots/started explants),[4]; [7],0
same,Number of transformed areas per explant,[4]; [8],0
same,Number of transgenic shoots,[4]; [8],0
same,Transformation frequency (number transgenic shoots/started explants),[4]; [8],0
same,Number of transformed areas per explant,[4]; [9],0
same,Number of transgenic shoots,[4]; [9],0
same,Transformation frequency (number transgenic shoots/started explants),[4]; [9],0
same,Number of transformed areas per explant,[4]; [10],0
same,Number of transgenic shoots,[4]; [10],0
same,Transformation frequency (number transgenic shoots/started explants),[4]; [10],0
same,Number of transformed areas per explant,[4]; glucosamine 2 g/l,0
same,Transformation frequency (%) (Number transgenic shoots/started explants),[4]; glucosamine 2 g/l,0%
same,Number of transformed areas per explant,[4]; [11],0.025
same,Number of transgenic shoots,[4]; [11],0
same,Transformation frequency (%) (Number transgenic shoots/started explants),[4]; [11],0%
same,Number of transgenic shoots,"[4]; glucosamine 2 g/l, NH4/NO3 1650 g/l",0
same,Number of transformed areas per explant,[4]; glucosamine 2.5 g/l,0
same,Transformation frequency (%) (Number transgenic shoots/started explants),[4]; glucosamine 2.5 g/l,0%
same,Number of transformed areas per explant,[4]; [12],0
same,Number of transgenic shoots,[4]; [12],0
same,Transformation frequency (%) (Number transgenic shoots/started explants),[4]; [12],0%
same,Number of transgenic shoots,"[4]; glucosamine 2.5 g/l, NH4/NO3 1650 g/l",0
same,Number of transformed areas per explant,[4]; glucosamine 3 g/l,0
same,Transformation frequency (%) (Number transgenic shoots/started explants),[4]; glucosamine 3 g/l,0%
same,Number of transformed areas per explant,[4]; [13],0
same,Number of transgenic shoots,[4]; [13],0
same,Transformation frequency (%) (Number transgenic shoots/started explants),[4]; [13],0%
same,Number of transgenic shoots,"[4]; glucosamine 3 g/l, NH4/NO3 1650 g/l",0
same,No of GUS-positive shoots,"[5]; sucrose 10 g/l, glucosamine 2.5 g/l, B5-salts 3.2 g/l",2
same,No of GUS-positive shoots,"[5]; sucrose 20 g/l, glucosamine 2.5 g/l, B5-salts 2.4 g/l",1
same,No of GUS-positive shoots,"[5]; sucrose 20 g/l, glucosamine 3.0 g/l, B5-salts 2.4 g/l",1
